This note sets out measurements from ChEMBL document CHEMBL4706671, “A High-Affinity Peptide Ligand Targeting Syntenin Inhibits Glioblastoma” (J Med Chem, 2021).

pKi: −log10 of the molar value. The source made the active and inactive calls. The calls are words filed in the database; no cut-off is given here. Non-standard residues stand in square brackets, D forms with d. Residues, ends and D or L forms follow the SMILES beside them. *: point of attachment. X1 = CN(C)c1ccc2c(-c3cc(C(=O)*)ccc3C(=O)[O-])c3ccc(=[N+](C)C)cc-3oc2c1; Biotin = O=C1N[C@H]2[C@H](CS[C@H]2CCCCC(=O)*)N1; Chg = N[C@H](C(=O)O)C1CCCCC1; Tle = CC(C)(C)[C@H](N)C(=O)O; AEEA = NCCOCCOCC(=O)O Bounds are passed on as bounds.

The target of data set [1] is T1, Syntenin-1 (Homo sapiens, UniProt O00560).
T1 sequence (O00560 whole entry): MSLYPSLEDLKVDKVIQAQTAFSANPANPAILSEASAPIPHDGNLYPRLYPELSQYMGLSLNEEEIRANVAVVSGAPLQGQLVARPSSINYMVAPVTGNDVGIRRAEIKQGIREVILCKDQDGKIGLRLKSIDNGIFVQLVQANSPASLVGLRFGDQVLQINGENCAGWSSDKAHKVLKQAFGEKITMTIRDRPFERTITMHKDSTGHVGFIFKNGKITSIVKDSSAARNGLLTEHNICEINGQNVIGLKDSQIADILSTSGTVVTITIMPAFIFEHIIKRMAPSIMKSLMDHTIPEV
Description: (§1) Inhibition of syntenin-PDZ1-2 domain (unknown origin) expressed in Escherichia coli BL21 (DE3) incubated for 5 mins by fluorescence polarization assay.

In data set [2] the target is T1, Syntenin-1. As to the kind of experiment: Binding affinity to syntenin-PDZ1-2 domain (unknown origin) expressed in Escherichia coli BL21 (DE3) by SPR analysis.
The target of data set [3] is T2, Syntenin-1 (Homo sapiens) (UniProt O00560).
T2 sequence (whole entry): T1 sequence (O00560 whole entry)
Description: Binding affinity to syntenin-PDZ1-2 domain (unknown origin) expressed in Escherichia coli BL21 (DE3) assessed as apparent association rate constant by SPR analysis.

Data set [4] concerns the target T2, Syntenin-1 (Homo sapiens). As to the kind of experiment: Binding affinity to syntenin-PDZ1-2 domain (unknown origin) expressed in Escherichia coli BL21 (DE3) assessed as apparent dissociation rate constant by SPR analysis.
The target of data set [5] is T2, Syntenin-1 (Homo sapiens). As to the kind of experiment: Binding affinity to human syntenin-PDZ1 domain assessed as binding intensity by HTS holdup assay.
For data set [6], the target named is T2, Syntenin-1 (Homo sapiens). As to the kind of experiment: Binding affinity to human syntenin-PDZ2 domain assessed as binding intensity by HTS holdup assay.
The species entered for data set [7] is Homo sapiens. Description: Selectivity index, ratio of Kd for binding affinity to syntenin2-PDZ1-2 domain (unknown origin) expressed in Escherichia coli BL21 (DE3) by SPR analysis to Kd for binding affinity to syntenin-PDZ1-2 domain (unknown origin) expressed in Escherichia coli BL21 (DE3) by SPR analysis.
In data set [8] the target is T2, Syntenin-1 (Homo sapiens). As to the kind of experiment: Inhibition of mCherry-labeled-syntenin expressed in human MCF7 cells co-expressing […] Q79L mutant assessed as reduction in syntenin-dependent intracellular endosomal budding at 0.1 to 10 uM incubated for 24 hrs. The class given is cell-based. The settings on record: dose 0.1-10 µM.
The subject of data set [9] is MCF7. Description: Antineoplastic activity against human MCF7 cells assessed as reduction in cell viability at 10 to 30 uM incubated for 72 hrs by Cell-titer-Glo luminescent cell viability assay. The settings on record: dose 10-30 µM. In kind it is functional, cell-based.
Data set [10] deals with HT-29. Description: Antineoplastic activity against human HT-29 cells assessed as reduction in cell viability at 10 to 30 uM incubated for 72 hrs by Cell-titer-Glo luminescent cell viability assay. The conditions noted are these: dose 10-30 µM. In kind it is functional, cell-based.
For data set [11], the system named is A2058. As to the kind of experiment: Antineoplastic activity against human A2058 cells assessed as reduction in cell viability incubated for 72 hrs by Cell-titer-Glo luminescent cell viability assay. In kind it is functional, cell-based.
The nature of data set [12]: Stability in human plasma assessed as half life for compound degradation at 0.2 mM by UPLC analysis. In kind it is ADME, cell-free.
The nature of data set [13]: Stability in mouse hepatic microsomes assessed as half life for compound degradation at […] in presence of NADPH by UPLC analysis. The class given is ADME, Microsome. The settings on record: liver microsomes.
In data set [14] the test system is GBM. Description: Antineoplastic activity against human patient-derived GBM001 cells assessed as reduction in cell viability incubated for 72 hrs by Cell-titer-Glo luminescent cell viability assay. In kind it is functional, cell-based.
Data set [15] concerns the target T2, Syntenin-1 (Homo sapiens). The description is as §1.
The test system of data set [16] is GBM. As to the kind of experiment: Antineoplastic activity against human patient-derived GBM002 cells assessed as reduction in cell viability incubated for 72 hrs by Cell-titer-Glo luminescent cell viability assay. In kind it is functional, cell-based.
Data set [17] has as its system Astrocyte. As to the kind of experiment: Cytotoxic activity against normal human astrocytes assessed as reduction in cell viability at 20 to 30 uM incubated for 24 hrs by Cell-titer-Glo luminescent cell viability assay. In kind it is cell-based. The conditions noted are these: dose 20-30 µM.
Data set [18] has as its system HEK293. Description: Cytotoxic activity against HEK293 cells assessed as reduction in cell viability at 12.5 to 50 uM incubated for 24 hrs by Cell-titer-Glo luminescent cell viability assay. The settings on record: human, hek293, 24 h, dose 12.5-50 µM. The class given is cell-based.
Data set [19] can be described thus: Drug distribution in cytoplasm of human patient-derived GBM002 cells at 10 to 30 uM incubated for 2 to 24 hrs hrs by confocal microscopy. In kind it is ADME, subcellular. The conditions noted are these: gbm, dose lower 10 µM, time lower 2 hrs, dose upper 30 µM, time upper 24 hrs.
In data set [20] the test system is GBM. Description: Antineoplastic activity against human patient-derived GBM cells xenografted in NMRInu-F receiving GBM cells pre-treated with 50 uM compound for 24 hrs assessed as median survival time (reference value: 25 days). The class given is functional.

Consider `CC[C@H](C)[C@H](NC(=O)[C@H](CC(=O)O)NC(=O)[C@@H](NC(=O)[C@@H](NC(=O)[C@H](Cc1c[nH]c2ccccc12)NC(=O)[C@H](Cc1cnc[nH]1)NC(=O)[C@H](CO)NC(=O)COCCOCCNC(=O)CCCC[C@@H]1SC[C@@H]2NC(=O)N[C@@H]21)C(C)(C)C)C1CCCCC1)C(=O)O` ({Biotin-AEEA}-SHW[Tle][Chg]DI-OH), for which the pKi in data set [1] is 6.72; in data set [2], 6.77. Moreover, the K is 3.1 10^5/M/s in [3] and 0.05 s⁻¹ in data set [4]. In data set [5], the Flu intensity worked out at 0.96. The result in data set [6] was inactive. Moreover, the Ratio in data set [7] turned out to be 440.

In the case of H-TTNEFYA-OH, in data set [1], the pKi is 5.70.

Take H-NAIYSLA-OH: in data set [1], the pKi is 4.00.

Compound `CC[C@H](C)[C@@H](NC(=O)[C@H](CC(=O)O)NC(=O)[C@@H](NC(=O)[C@@H](NC(=O)[C@H](Cc1c[nH]c2ccccc12)NC(=O)[C@H](Cc1cnc[nH]1)NC(=O)[C@H](CO)NC(=O)[C@H](CCCNC(=N)N)NC(=O)[C@H](CCCNC(=N)N)NC(=O)[C@H](CCCNC(=N)N)NC(=O)[C@H](CCC(N)=O)NC(=O)[C@H](CCCNC(=N)N)NC(=O)[C@H](CCCNC(=N)N)NC(=O)[C@H](CCCCN)NC(=O)[C@H](CCCCN)NC(=O)[C@H](CCCNC(=N)N)NC(=O)CNC(=O)[C@H](Cc1ccc(O)cc1)NC(C)=O)C(C)(C)C)C1CCCCC1)C(=O)O` showed a pKi in data set [1] of 6.60. In [8], the inhibition entry was “Dose-dependent effect”.

Consider H-RSGYEVM-OH, for which, in [1], the pKi was 4.62.

In the case of `CC[C@H](C)[C@@H](NC(=O)[C@H](CC(=O)O)NC(=O)[C@@H](NC(=O)[C@@H](NC(=O)[C@H](Cc1c[nH]c2ccccc12)NC(=O)[C@H](Cc1cnc[nH]1)NC(=O)[C@H](CO)NC(=O)[C@H](CCCNC(=N)N)NC(=O)[C@H](CCCNC(=N)N)NC(=O)[C@H](CCCNC(=N)N)NC(=O)[C@H](CCCNC(=N)N)NC(=O)[C@H](CCCNC(=N)N)NC(=O)[C@H](CCCNC(=N)N)NC(=O)[C@H](CCCNC(=N)N)NC(=O)[C@H](CCCNC(=N)N)NC(=O)[C@H](CCCNC(=N)N)NC(C)=O)C(C)(C)C)C1CCCCC1)C(=O)O`, in [1], the pKi was 6.60. In addition, the inhibition entry in [8] was “Dose-dependent effect”.

H-SKGETAV-OH gave a pKi in data set [1] of 5.00.

`CC[C@H](C)[C@H](NC(=O)[C@H](Cc1cnc[nH]1)NC(=O)[C@@H](NC(=O)[C@@H](NC(=O)[C@@H](N)CC(=O)O)C1CCCCC1)C(C)(C)C)C(=O)N[C@@H](Cc1c[nH]c2ccccc12)C(=O)N[C@@H](CO)C(=O)O` (H-D[Chg][Tle]HIWS-OH) had a pKi in data set [1] of less than 3.30.

H-KDKEYYV-OH: the pKi in data set [1] is 3.96.

Take `CC[C@H](C)[C@@H](NC(=O)[C@H](CC(=O)O)NC(=O)[C@@H](NC(=O)[C@@H](NC(=O)[C@H](Cc1c[nH]c2ccccc12)NC(=O)[C@H](Cc1cnc[nH]1)NC(=O)[C@H](CO)NC(=O)[C@@H]1CCC(=O)NCCCC[C@H](NC(C)=O)C(=O)N[C@H](CCCNC(=N)N)C(=O)N[C@@H](CCCNC(=N)N)C(=O)N[C@H](CCCNC(=N)N)C(=O)NCC(=O)N[C@H](CCCNC(=N)N)C(=O)N[C@@H](CCCCN)C(=O)N[C@H](CCCCN)C(=O)N[C@@H](CCCNC(=N)N)C(=O)N[C@H](CCCNC(=N)N)C(=O)N1)C(C)(C)C)C1CCCCC1)C(=O)O`: the outcome in data set [9] and in data set [10] was inactive. Moreover, the Activity entry in [11] was “Dose-dependent effect”. In data set [1], this compound had a pKi of 6.60. The half-life at 200 µM in data set [12] was more than 24 h. The half-life in data set [13] was more than 1 h. The inhibition result in data set [8] is “Dose-dependent effect”.

For the compound `CC(C)NCC(O)COc1cccc2ccccc12` (stereo not drawn) [PROPRANOLOL], the half-life in data set [13] came to 0.583 h.

The compound H-TLEDSVF-OH gave a pKi in data set [1] of 4.36.

With H-SHWTIDI-OH, the negative-log Ki (pKi) in data set [1] was 5.70. The half-life at 200 µM in [12] came out at 0.142 h. The half-life in data set [13] is more than 1 h.

In the case of `CC[C@H](C)[C@H](NC(=O)[C@H](CC(=O)O)NC(=O)[C@@H](NC(=O)[C@@H](NC(=O)[C@H](Cc1c[nH]c2ccccc12)NC(=O)[C@H](Cc1c[nH]cn1)NC(=O)[C@H](CO)NC(=O)[C@H](CCCNC(=N)N)NC(=O)[C@H](CCCNC(=N)N)NC(=O)[C@H](CCCNC(=N)N)NC(=O)[C@H](CCC(N)=O)NC(=O)[C@H](CCCNC(=N)N)NC(=O)[C@H](CCCNC(=N)N)NC(=O)[C@H](CCCCN)NC(=O)[C@H](CCCCN)NC(=O)[C@H](CCCNC(=N)N)NC(=O)CNC(=O)[C@H](Cc1ccc(O)cc1)NC(C)=O)C(C)(C)C)C1CCCCC1)C(=O)O`, the half-life in data set [13] is more than 1 h.

For the compound `CC[C@H](C)[C@H](NC(=O)[C@H](CC(=O)O)NC(=O)CNC(=O)[C@H](Cc1cnc[nH]1)NC(=O)[C@H](CS)NC(=O)[C@H](CCC(=O)O)NC(=O)[C@H](CC(C)C)NC(=O)[C@@H](NC(=O)[C@H](Cc1c[nH]c2ccccc12)NC(=O)[C@H](Cc1cnc[nH]1)NC(=O)[C@H](CO)NC(=O)[C@H](CCCNC(=N)N)NC(=O)[C@H](CCCNC(=N)N)NC(=O)[C@H](CCCCN)NC(=O)[C@H](CCCCN)NC(=O)[C@H](CCCNC(=N)N)NC(=O)CNC(=O)[C@H](CCCNC(=N)N)NC(=O)[C@H](CCCNC(=N)N)NC(=O)[C@H](CCCNC(=N)N)NC(=O)[C@H](CS)NC(=O)[C@H](C)N)[C@@H](C)O)C(=O)O` (H-ACRRRGRKKRRSHWTLECHGDI-OH), the Activity result in data set [14] was “Dose-dependent effect”; in data set [11], “Dose-dependent effect”; in [16], “Dose-dependent effect”; in data set [17] it was “Toxic”; in data set [18], “Toxic”. For the same compound, the result in [9] and in data set [10] was inactive. Moreover, in data set [15], the inhibition entry was “Active”. For the same compound, the half-life in data set [13] was more than 1 h. In addition, the inhibition result in [8] is “Dose-dependent effect”. In addition, the Drug uptake entry in data set [19] was “Dose-dependent effect and Tde”. Also, the MST in data set [20] turned out to be 45.5 days.

Compound `CC[C@H](C)[C@H](NC(=O)[C@H](CC(=O)O)NC(=O)[C@@H](NC(=O)[C@@H](NC(=O)[C@H](Cc1c[nH]c2ccccc12)NC(=O)[C@H](Cc1cnc[nH]1)NC(=O)[C@H](CO)NC(=O)CNC(=O)[C@H](CC(N)=O)NC(=O)[C@H](CC(N)=O)NC(=O)c1ccc(C(=O)[O-])c(-c2c3ccc(=[N+](C)C)cc-3oc3cc(N(C)C)ccc23)c1)C(C)(C)C)C1CCCCC1)C(=O)O` (X1-NNGSHW[Tle][Chg]DI-OH) gave a pKi in data set [1] of 7.52.
